From PMC8802617 (Bioorganic & medicinal chemistry, 2018)
Like-named read-outs stand apart in the source and are kept apart here. *1 amine or outer side, *2 acyl side, *3 side chain or, on linkers, in order; H or OH if unused. Where a SMILES comes first, the peptide text is derived from it. Bridges are numbered along the chain shown (N, C = ends). Roman numbers before positions name the chains, in order. [ ]: non-standard residue; d: D form. Piperazine(1,4-diyl) = C1CN([*:2])CCN1[*:1]; dPen = CC(C)(S)[C@@H](N)C(=O)O

Legend:
MOR [1] = biological target: T1, MOR (Homo sapiens, UniProt P35372); assay: Split luciferase cAMP assay, agonist mode, HEK cells stably expressing MOR; format: cell-based
DOR [2] = biological target: T2, DOR (Homo sapiens, UniProt P41143); assay: Split luciferase cAMP assay, agonist mode, HEK cells stably expressing DOR; format: cell-based
KOR [3] = biological target: T3, KOR (Homo sapiens, UniProt P41145); assay: biochemical; format: binding
MOR [4] = biological target: T1, MOR; format: binding; conditions: membranes from transient HEK cells
DOR [5] = biological target: T2, DOR; format: binding; conditions: membranes from transient HEK cells
KOR [6] = biological target: T3, KOR; assay: cell-based
KOR [7] = biological target: T3, KOR; conditions: read-out: KOR Ki, cited from earlier work
MOR [8] = biological target: T1, MOR; conditions: read-out: MOR Ki; literature value ref 16; cited from earlier work
DOR [9] = biological target: T2, DOR; conditions: read-out: DOR Ki; literature value ref 16; cited from earlier work

T3 sequence (P41145 whole entry): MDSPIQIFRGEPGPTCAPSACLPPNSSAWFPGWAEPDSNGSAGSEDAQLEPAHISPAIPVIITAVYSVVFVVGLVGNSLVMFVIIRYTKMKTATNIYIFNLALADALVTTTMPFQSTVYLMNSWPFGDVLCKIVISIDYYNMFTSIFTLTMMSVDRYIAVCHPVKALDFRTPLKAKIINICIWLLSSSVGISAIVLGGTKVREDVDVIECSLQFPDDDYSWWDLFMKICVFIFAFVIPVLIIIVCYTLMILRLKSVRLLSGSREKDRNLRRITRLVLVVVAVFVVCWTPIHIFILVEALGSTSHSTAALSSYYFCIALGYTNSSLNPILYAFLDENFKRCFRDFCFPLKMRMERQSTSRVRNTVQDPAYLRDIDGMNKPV
T2 sequence (P41143 whole entry): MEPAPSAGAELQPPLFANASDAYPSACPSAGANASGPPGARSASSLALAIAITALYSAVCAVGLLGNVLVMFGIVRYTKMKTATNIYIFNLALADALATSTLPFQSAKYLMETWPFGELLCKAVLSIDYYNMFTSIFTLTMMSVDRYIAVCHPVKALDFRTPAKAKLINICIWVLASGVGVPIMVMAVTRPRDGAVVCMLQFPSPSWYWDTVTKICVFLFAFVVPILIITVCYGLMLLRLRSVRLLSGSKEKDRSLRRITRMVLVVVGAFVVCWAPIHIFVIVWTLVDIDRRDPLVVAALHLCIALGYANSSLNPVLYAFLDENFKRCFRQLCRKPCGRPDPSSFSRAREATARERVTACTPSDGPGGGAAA
T1 sequence (P35372 whole entry): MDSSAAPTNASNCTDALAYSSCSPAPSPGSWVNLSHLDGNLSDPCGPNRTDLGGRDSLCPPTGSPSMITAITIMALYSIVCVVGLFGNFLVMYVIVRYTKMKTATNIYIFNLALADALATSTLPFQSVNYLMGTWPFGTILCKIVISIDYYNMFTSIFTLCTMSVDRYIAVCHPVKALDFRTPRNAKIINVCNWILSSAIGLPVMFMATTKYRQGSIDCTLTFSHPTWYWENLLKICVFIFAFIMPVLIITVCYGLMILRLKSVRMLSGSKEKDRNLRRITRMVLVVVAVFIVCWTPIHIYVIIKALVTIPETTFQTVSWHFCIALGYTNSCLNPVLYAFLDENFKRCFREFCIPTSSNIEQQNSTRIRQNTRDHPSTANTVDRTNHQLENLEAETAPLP

Compound CC1(C)SSC(C)(C)[C@@H](NC(=O)[C@@H](N)Cc2ccc(O)cc2)C(=O)NCC(=O)N[C@@H](Cc2ccccc2)C(=O)N2CCN(CC2)C(=O)[C@H](Cc2ccccc2)NC(=O)CNC(=O)[C@@H]1NC(=O)[C@@H](N)Cc1ccc(O)cc1 [ligand 3, c^2,2′(Tyr-DPen-Gly-Phe)2-piperazine] (I: H-Y[dPen]GF / II: H-Y[dPen]GF; disulfide I:2-II:2; linker I:C-II:C via Piperazine(1,4-diyl)) has an EC50 (MOR [1]; MOR EC50, agonist mode) of 0.191 µM, an EC50 (MOR [1]; MOR pEC50, agonist mode) of 0.191 µM and an EC50 (DOR [2]; DOR EC50, agonist mode) of 0.269 µM. The EC50 (DOR [2]; DOR pEC50, agonist mode) was 0.269 µM, the Ki (KOR [3]; KOR [3H]U69593 Ki) was 0.0056 µM and the Ki (KOR [3]; KOR [3H]U69593 pKi) was 0.00562 µM. For the same compound, the Ki (MOR [4]; MOR [3H]DAMGO Ki) was 0.0029 µM, the Ki (MOR [4]; MOR [3H]DAMGO pKi) was 0.00288 µM and the Ki (DOR [5]; DOR [3H]DADLE Ki) was 0.0019 µM. The Ki (DOR [5]; DOR [3H]DADLE pKi) was 0.002 µM, the EC50 (KOR [6]; KOR EC50) was 0.269 µM and the EC50 (KOR [6]; KOR pEC50) was 0.269 µM.

For Biphalin, the Ki (KOR [7]; literature value ref 6) is listed as 0.27 ± 0.015 µM.

In the case of “c^2,2′(Tyr-DPen-Gly-Phe-NH-)2 (YCGF) [compound 6]”, the Ki (MOR [8]) is listed as 0.0052 ± 0.0005 µM, the Ki (DOR [9]) is listed as 0.0019 ± 0.0002 µM and the Ki (KOR [7]; literature value ref 16) is listed as 0.257 ± 0.025 µM.
